The source of these data is US11040976B2, “Substrate selective inhibitors of insulin-degrading enzyme (IDE) and uses thereof” (President and Fellows of Harvard College, priority 2015, dated 2021).

The structures appear in SMILES notation.

For this test, the target named is T1, recombinant human IDE42-1019 (Homo sapiens, UniProt P14735).
T1 construct: recombinant human IDE42-1019 (R&D Systems); purchased R&D Systems
T1 sequence (P14735 42-1019): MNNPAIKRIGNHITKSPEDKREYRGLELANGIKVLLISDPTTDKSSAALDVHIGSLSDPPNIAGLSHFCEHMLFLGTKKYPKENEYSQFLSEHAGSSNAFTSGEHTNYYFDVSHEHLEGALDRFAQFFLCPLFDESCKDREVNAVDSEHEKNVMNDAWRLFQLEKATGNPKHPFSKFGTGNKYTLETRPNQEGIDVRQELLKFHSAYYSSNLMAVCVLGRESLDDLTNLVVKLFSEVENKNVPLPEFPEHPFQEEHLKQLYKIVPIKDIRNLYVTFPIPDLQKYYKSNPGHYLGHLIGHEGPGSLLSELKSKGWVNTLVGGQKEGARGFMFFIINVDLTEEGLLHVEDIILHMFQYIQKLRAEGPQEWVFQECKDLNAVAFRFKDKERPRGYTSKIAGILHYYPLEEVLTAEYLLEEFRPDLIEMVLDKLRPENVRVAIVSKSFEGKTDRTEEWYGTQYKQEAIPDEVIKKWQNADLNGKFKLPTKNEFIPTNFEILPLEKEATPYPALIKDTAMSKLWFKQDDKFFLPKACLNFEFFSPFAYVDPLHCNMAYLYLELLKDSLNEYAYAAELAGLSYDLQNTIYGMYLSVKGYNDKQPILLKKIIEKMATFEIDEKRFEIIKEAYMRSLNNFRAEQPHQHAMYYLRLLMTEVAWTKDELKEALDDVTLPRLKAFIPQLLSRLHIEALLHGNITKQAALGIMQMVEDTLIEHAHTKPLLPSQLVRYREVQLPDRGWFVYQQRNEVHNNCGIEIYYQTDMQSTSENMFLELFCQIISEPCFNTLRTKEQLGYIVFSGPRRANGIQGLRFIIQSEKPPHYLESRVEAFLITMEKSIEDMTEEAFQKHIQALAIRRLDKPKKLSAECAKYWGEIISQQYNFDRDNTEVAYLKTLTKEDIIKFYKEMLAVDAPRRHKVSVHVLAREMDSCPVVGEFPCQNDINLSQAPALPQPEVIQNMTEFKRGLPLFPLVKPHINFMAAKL
The experiment in a line: Protease assay with fluorogenic peptide substrate Mca-[…](Dnp)-OH. The format is biochemical. Particulars: fluorogenic peptide Mca-RPPGFSAFK(Dnp)-OH; for IC50: apparent IC50 for compounds with submaximal inhibition, read-out: IC50 (μM) Proteolysis; for Emax: plateau at high inhibitor concentration, read-out: Imax (%) Proteolysis (inhibition maximum). The procedure:
The proteases IDE42-1019, recombinant human IDE42-1019 (R&D Systems), neprilysin (R&D), and angiotensin-converting enzyme (R&D) were assayed using the fluorophore/quencher-tagged peptide substrate Mca-[…](Dnp)-OH (SEQ ID NO: 24) (R&D) according to the manufacturer's instructions and using the recommended buffers (fluorophore Mca=(7-methoxycourmarin-4-yl)acetyl and quencher Dnp=2,4-dinitrophenyl). For IDE the recommended buffer is 50 mM Tris pH 7.5, 1 M NaCl. The enzyme mixtures (48 μL) were transferred to a 96-well plate and combined with 2 μL of inhibitor in DMSO solutions, in 3-fold dilution series. The mixtures were allowed to equilibrate for 10 minutes and the enzymatic reaction was started by addition of substrate peptide in assay buffer (50 μL), mixed, and monitored on a fluorescence plate reader (excitation at 320 nm, emission at 405 nm). Similarly, thimet oligopeptidase (R&D) and neurolysin (R&D) were assayed using substrate Mca-PLGPK(Dnp)-OH (SEQ ID NO: 25) (R&D) according to the manufacturer's instructions and using the recommended buffers. Matrix metalloproteinase-1 (R&D) was activated and assayed according to the manufacturer's instructions with substrate Mca-KPLGL-Dpa-AR-NH2 (SEQ ID NO: 20) (R&D) (quencher DPA=N-3-(2,4,dinitrophenyl)-L-2,3-diaminopropionyl). All assay data points were obtained in duplicate.

Consider `Cc1ccccc1S(=O)(=O)N1CCN(c2ccc(-c3cccc(C)c3C)cc2)CC1` [J1], for which the IC50 turned out to be 1 µM.
Same read-out and setting: then `Cc1ccccc1S(=O)(=O)NCCc1ccc(-c2cccc(C)c2C)cc1` [J3], with 2.5 µM.
On to `Cc1c(-c2ccc([C@@H]3[C@@H](CO)N4CCCCN(S(=O)(=O)c5ccccc5C(F)(F)F)C[C@@H]34)cc2)cccc1C(F)(F)F` [K19], for which the half-inhibitory concentration (IC50) came out at 0.1 µM.
As for `COC[C@@H]1[C@@H](c2ccc(-c3cccc(C)c3C)cc2)[C@@H]2CN(S(=O)(=O)c3ccccc3C(F)(F)F)CCCCN12` [JP-17-OMe], the IC50 was 0.05 µM.
For `Cc1cccc(-c2ccc(C3CCN(Cc4ccc(Oc5ccccc5)cc4)CC3)cc2)c1C` [A31], the IC50 came out at 12 µM.
Take `Cc1ccccc1S(=O)(=O)N1CCCCN2[C@H](CO)[C@@H](c3ccc(-c4ccc5c(c4)OCO5)cc3)[C@@H]2C1` [B4]: the Emax stood at 100%.
Turning to `Cc1ccccc1S(=O)(=O)N1CCC(c2ccc(-c3cccc(C)c3C)cc2)CC1` [J6], the IC50 is 0.3 µM.
In the case of `Cc1ccccc1S(=O)(=O)N1CCCCN2C(C1)[C@H](c1ccc(-c3cccc(F)c3F)cc1)[C@H]2CO` (stereo partly shown) [K15], the Emax amounted to 90%.
In the case of `Cc1cccc(-c2ccc(C3CCN(S(=O)(=O)N4CC(C)OC(C)C4)CC3)cc2)c1C` (stereo not shown) [A19], the concentration for half-maximal inhibition (IC50) is 4 µM.
With `Cc1cccc(-c2ccc(C3CCN(Cc4ccc5ccccc5n4)CC3)cc2)c1C` [A39], the IC50 worked out at 12 µM.
With `O=S(=O)(c1ccccc1C(F)(F)F)N1C/C=C\CN2C(C1)[C@H](c1ccc(-c3cccc(Cl)c3Cl)cc1)[C@H]2CO` (stereo partly shown) [K21], the IC50 turned out to be 0.008 µM.
Turning to `Cc1cccc(-c2ccc(N3CCN(C(=O)C4CCCCC4)CC3)cc2)c1C` [J9], the IC50 was 2.5 µM.
As to `CCCNC(=O)N1CC(=O)N2[C@@H](CO)[C@H](c3ccc(-c4cccc(C)c4)cc3)[C@@H]2C1` [compound 231], the concentration for half-maximal inhibition (IC50) was 2.5 µM and the Emax was 60%.
`COc1ccccc1-c1ccc([C@H]2[C@@H](CO)N[C@@H]2CNC(=O)C2CCCC2)cc1` [D5]: the IC50 stood at 7.5 µM and the Emax worked out at 60%.
Regarding `Cc1cccc(-c2ccc([C@@H]3[C@@H](CO)N4CCCCN(S(=O)(=O)c5nccn5C)C[C@@H]34)cc2)c1C` [JP-S23], the IC50 was 0.0006 µM.
On to `Cc1ccc(-c2ccc([C@@H]3[C@@H](CO)N4CCCCN(S(=O)(=O)c5ccccc5C)C[C@@H]34)cc2)cc1C` [B3], for which the IC50 was 0.2 µM and the Emax came out at 72%.
As to `Cc1cccc(-c2ccc(C3CCN(S(=O)(=O)c4cccc(C(=O)N(C)C)c4)CC3)cc2)c1C` [A06], the IC50 was found to be 1 µM.
Regarding `Cc1ccccc1S(=O)(=O)N1CCCCN2[C@H](CO)[C@@H](c3ccc(-c4cccc(F)c4)cc3)[C@@H]2C1` [B10], the Emax was determined as 65%.
Consider `Cc1ccc(C)c(-c2ccc([C@H]3C4CN(S(=O)(=O)c5ccccc5C)CCCCN4[C@@H]3CO)cc2)c1` (stereo partly shown) [K13], for which the Emax turned out to be 65%.
`Cc1cc(S(=O)(=O)N2CCCCN3[C@H](CO)[C@@H](c4ccc(-c5cccc(C)c5C)cc4)[C@@H]3C2)n(C)n1` [JP-S25]: the IC50 was determined as 0.02 µM.
In the case of `Cc1c(F)ccc(-c2ccc([C@@H]3[C@@H](CO)N4CCCCN(S(=O)(=O)c5nccn5C)C[C@@H]34)cc2)c1C` [JP-43], the concentration for half-maximal inhibition (IC50) was determined as 0.004 µM.
Regarding `Cc1cccc(-c2ccc([C@@H]3[C@@H](CO)N4CCCCN(S(=O)(=O)N5CCN(C)CC5)C[C@@H]34)cc2)c1C` [JP-S22], the half-maximal inhibitory concentration (IC50) turned out to be 0.03 µM.
On to `Cc1cccc(-c2ccc([C@@H]3[C@@H](CO)N4C/C=C\CN(S(=O)(=O)c5ccccc5C)C[C@@H]34)cc2)c1` [B1], for which the 50% inhibitory concentration (IC50) was 0.2 µM.
`O=C(NC1CCCC1)N1CCCCN2[C@@H](CO)[C@H](c3ccc(/C=C/c4ccccc4)cc3)[C@@H]2C1` [compound 900]: the IC50 is over 7.5 µM.
In the case of `Cc1ccccc1S(=O)(=O)N1CCCCN2C(C1)[C@H](c1ccc(-c3ccccc3)cc1)[C@H]2CO` (stereo partly shown) [K7], the Emax amounted to 65%.
In the case of `Cc1ccccc1S(=O)(=O)N1CCCCN2[C@H](CO)[C@@H](c3ccc(-c4cccc(F)c4F)cc3)[C@@H]2C1` [K15], the IC50 came out at 0.8 µM.
On to `Cc1cccc(-c2ccc([C@@H]3[C@H](CO)N4CCCCN(S(=O)(=O)c5ccccc5F)C[C@@H]34)cc2)c1` [Compound 807], for which the Emax was found to be 30%.
As for `Cc1cccc(-c2ccc(C3CCN(S(=O)(=O)c4cc5ccccc5o4)CC3)cc2)c1C` [A03], the half-maximal inhibitory concentration (IC50) is over 100 µM.
Take `COc1cccc(-c2ccc([C@@H]3[C@@H](CO)N4CCCCN(CC5CCOCC5)C[C@@H]34)cc2)c1` [compound 644]: the IC50 was over 100 µM.
For `OC[C@H]1[C@@H](c2ccc(C#Cc3ccccc3F)cc2)[C@@H]2CN(Cc3cncnc3)CCCCN12` [compound 683], the IC50 amounted to 7 µM and the Emax is 80%.
As to `Cc1ccccc1S(=O)(=O)N1CCCCN2[C@H](CO)[C@@H](c3ccc(-c4cccc(C)c4C)cc3)[C@@H]2C1` [K9], the IC50 worked out at 0.002 µM.
On to `Cc1c(Cl)cccc1-c1ccc([C@H]2C3CN(S(=O)(=O)c4ccccc4C(F)(F)F)C/C=C\CN3[C@@H]2CF)cc1` (stereo partly shown) [JP-38], for which the IC50 is 0.06 µM.
With `Cc1ccccc1S(=O)(=O)N1CC=C(c2ccc(-c3cccc(C)c3C)cc2)CC1` [J7], the half-inhibitory concentration (IC50) is over 100 µM.
Turning to `Cc1ccccc1-c1ccc([C@H]2[C@H]3CN(C(=O)NC4CCCC4)CC(=O)N3[C@H]2CO)cc1` [compound 612], the Emax was 50%.
As for `COc1ccccc1-c1ccc([C@@H]2[C@@H](C#N)N(C(=O)CN(C)C)[C@H]2CO)cc1` [D6], the concentration for half-maximal inhibition (IC50) came out at 5 µM and the Emax was 70%.
With `Cc1cccc(-c2ccc(C3CCN(Cc4cccc(Oc5ccccc5)c4)CC3)cc2)c1C` [A32], the IC50 came to 12 µM.
In the case of `Cc1cccc(-c2ccc(C3CCN(S(=O)(=O)c4ccc5c(c4)OCCO5)CC3)cc2)c1C` [A01], the 50% inhibitory concentration (IC50) was over 30 µM.
Regarding `Cc1cccc(-c2ccc([C@H]3C4CN(S(=O)(=O)c5cn(C)nc5C(F)(F)F)C/C=C\CN4[C@@H]3CO)cc2)c1C` (stereo partly shown) [JP-S20], the concentration for half-maximal inhibition (IC50) amounted to 0.03 µM.
Still for that read-out and setting: the value for `Cc1cccc(-c2ccc([C@@H]3[C@@H](CO)N4CCCCN(C(=O)c5ccc6c(c5)OCO6)C[C@@H]34)cc2)c1` [compound 291] was over 200 µM.
For the molecule `Cc1cccc(-c2ccc(C3CCN(Cc4ccccc4Oc4ccccc4)CC3)cc2)c1C` [A33], the IC50 was determined as 7 µM.
On to `Cc1cccc(-c2ccc(C3CCN(S(=O)(=O)c4ccc5c(c4)CCC(=O)N5)CC3)cc2)c1C` [A10], for which the half-maximal inhibitory concentration (IC50) is 33 µM.
Consider `Cc1ccccc1S(=O)(=O)N1CCCCN2[C@H](CO)[C@@H](c3ccc(-c4ccc(F)c(F)c4C)cc3)[C@@H]2C1` [K24], for which the half-maximal inhibitory concentration (IC50) stood at 0.3 µM.
With `Cc1cccc(-c2ccc(C3CCN(C(=O)Oc4cccc5ccccc45)CC3)cc2)c1C` [A29], the IC50 was over 50 µM.
Regarding `Cc1cccc(-c2ccc([C@@H]3[C@@H](CO)N4CCCCN(S(=O)(=O)c5ccccc5C)C[C@@H]34)cc2)c1` [BRD-297], the IC50 was determined as 0.25 µM.
Consider `Cc1cccc(-c2ccc(C3CCN(S(=O)(=O)CCc4ccncc4)CC3)cc2)c1C` [A17], for which the IC50 stood at 5 µM.
Turning to `O=C(c1ccncc1)N1CC2NC(C1)C2c1ccc(/C=C/c2ccccc2)cc1` (stereo not shown) [C10], the IC50 is 10 µM and the Emax is 100%.
Turning to `Cc1cccc(-c2ccc([C@@H]3[C@@H](CN(C)C)N4CCCCN(S(=O)(=O)c5ccccc5C(F)(F)F)C[C@@H]34)cc2)c1C` [JP-17-DMA], the IC50 amounted to 0.1 µM.
Take `Cc1cccc(-c2ccc(N3CCN(C(=O)CC4CCCCC4)CC3)cc2)c1C` [J16]: the IC50 was found to be 2.5 µM.
Consider `Cc1ccccc1S(=O)(=O)N1CCCCN2[C@H](CO)[C@@H](c3ccc(-c4cccc(F)c4F)cc3)[C@@H]2C1` [B14], for which the Emax was 90%.
